Source: patent US7214671B2, “Use of 2-methylene-19-nor-20(S)-1α,25-dihydroxyvitamin D3 for the prophylaxis of bone diseases” (Wisconsin Alumni Research Foundation, priority 2004, dated 2007)
Where “and” joins values, the source holds several entries; their conditions need not be identical. Equal values may be shown once. Entries after “also recorded” stand apart in the source; their conditions may differ.

Tests used:
[1] = tested on: HL-60 promyelocytic cells; experiment: HL-60 cell differentiation into monocytes; assay type: cell-based; conditions: FIG. 5
Method: The differentiation of HL-60 promyelocytic cells into monocytes was determined as described by Ostrem et al. (J. Biol. Chem. 262, 14164–14171, 1987).

[2] = tested on: ovariectomized old female rats; experiment: Treatment of ovariectomized old female rats (bone mass, serum calcium, femur ash); assay type: in vivo, rat; conditions: doses of Table 1
Excerpt: Values in the figure are mean±standard error.

Rhesus monkeys = experiment: Serum calcium after single oral bolus dose in Rhesus monkeys; assay type: in vivo, Rhesus monkey; set-up: dose or concentration left out as unconfirmed; conditions: 24 hours after dose, FIG. 10
Method: FIG. 10 is a line graph illustrating the blood serum calcium levels 24 hours after dose in Rhesus monkeys given a single oral bolus dose of 2-methylene-19-nor-20(S)-1α,25-dihydroxyvitamin D3 (2MD) at varying concentrations;
These and other tests indicate that primates will tolerate 2MD extremely well which may give a very large window between efficacy and the danger of hypercalcemia in man.

[3] = tested on: mobilization of bone calcium; experiment: Bone calcium mobilization (serum calcium) in vitamin D-deficient rats; assay type: in vivo, rat; conditions: serum calcium 24 hours after last dose, zero calcium diet, FIG. 3
Method: Blood serum calcium was measured 24 hours following the last dose in the rats as described in FIG. 2. Values represent mean±standard error.
(§1) The intestinal calcium transport and bone mobilization studies were carried out as described by Sicinski et al. (J. Med. Chem. 41, 4662–4674, 1998) and Suda et al. (J. Nutr. 100, 1049–1052, 1970).
The in vivo tests of increasing serum calcium of rats on a zero calcium diet provides an insight to […] or bone activity of 2MD.

[4] = tested on: normal adult female Sprague-Dawley rats; experiment: Building bone mass in normal adult female rats (BMD, body weight, serum calcium); assay type: in vivo, rat; conditions: 2.5 ng/kg/d oral
Method: All 7-month old, nulliparous female, Sprague-Dawley rats (Harlan Sprague-Dawley, Madison, Wis.) were sham-operated at 7 months of age.
Beginning with arrival in the facility, rats were fed a purified rodent diet (“Diet 11”) prepared in-house (Suda et al, 1970, J. Nutr., 100:1049–1052) and containing 0.47% calcium, 0.3% phosphorus and 1.6 IU vitamin D3/g. To maintain consistent body weights (monitored weekly), rats were fed a total of 150 g diet/week, i.e. 21.5 g/day/rat.
Rats were dosed daily beginning 5–6 weeks post-surgery. Neobee oil (vehicle) or 2MD were delivered to the back of the tongue in 100 μL. The dosing solution concentrations were adjusted monthly based on group-average body weights.
At predose and at 1, 2, 4, 6, 10, 11, 18 and 25 weeks after dose, blood was collected 24 hr. after the most recent dose from the tail artery of ether-anesthetized rats. Serum was diluted in 0.1% lanthum chloride and the concentration of calcium determined by atomic absorption spectrometry. The values shown are averages for all rats, and include standard errors.
Both total body BMD and appendicular (right distal and proximal femur) BMD were determined by dual-energy X-ray absorptiometry (Lunar DPXα-Madison, Wis.; Small Animal Software-version 1.0e) at weeks 0, 8, 16, and 24. Appendicular BMD was performed as described (Haffa et al, 2000, J. Bone Min. Res. 15:872). The values shown are averages for all rats and include standard errors.

[5] = tested on: intestinal calcium transport; experiment: Intestinal calcium transport in vitamin D-deficient rats (everted gut sac); assay type: in vivo, rat; conditions: oral gavage 7 consecutive days, FIG. 2
Method: Values represent means±standard error.
as §1

[6] = target: T1, full length recombinant rat receptor (nuclear vitamin D receptor) (Rattus norvegicus, UniProt P13053); experiment: Competitive binding of [3H]-1α,25-(OH)2-D3 to full length recombinant rat vitamin D receptor; conditions: FIG. 1
T1 construct: the full length recombinant rat receptor
T1 sequence (P13053 1-423): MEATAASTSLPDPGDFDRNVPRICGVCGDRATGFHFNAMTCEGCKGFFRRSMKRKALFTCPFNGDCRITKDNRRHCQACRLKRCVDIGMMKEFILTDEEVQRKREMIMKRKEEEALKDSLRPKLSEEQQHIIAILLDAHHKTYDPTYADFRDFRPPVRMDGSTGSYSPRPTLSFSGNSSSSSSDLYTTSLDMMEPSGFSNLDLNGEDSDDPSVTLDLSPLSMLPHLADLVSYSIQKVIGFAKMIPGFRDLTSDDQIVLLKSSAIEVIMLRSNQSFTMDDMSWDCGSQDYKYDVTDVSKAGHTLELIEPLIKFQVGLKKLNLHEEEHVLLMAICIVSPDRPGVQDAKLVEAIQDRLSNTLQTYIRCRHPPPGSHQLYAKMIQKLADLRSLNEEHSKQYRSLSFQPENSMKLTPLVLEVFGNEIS

C=C1[C@H](O)CC(=C/C=C2\CCC[C@]3(C)[C@@H]([C@@H](C)CCCC(C)(C)O)CC[C@@H]23)C[C@H]1O [2MD, 2-methylene-19-nor-20(S)-1α,25-dihydroxyvitamin D3]
potency relative to 1,25(OH)2D3 on HL-60 cell differentiation [1]: 10–50 times
change in serum calcium at dosage levels that elevated bone mass [2]: no change in serum calcium
elevation of serum calcium concentration (Rhesus monkeys): does not cause significant elevation
potency relative to 1,25(OH)2D3 in mobilization of bone calcium [3]: 100 times and 80–100 times
increase in cancellous bone BMD ([4]; 24 weeks, FIG. 12A): 14%
increase in cortical bone ([4]; FIG. 12B): 6%
change in body weight ([4]; FIG. 13A): absence of any change
change in serum calcium ([4]; FIG. 13B): absence of any change
total body BMD versus vehicle control ([4]; from 8 to 24 weeks, FIG. 11): increased above vehicle-control animals
intestinal calcium transport activity compared with 1,25(OH)2D3 [5]: activity similar to that of 1,25-dihydroxyvitamin D3; also recorded: approximately equal
binding to the receptor as compared to the standard 1,25-(OH)2D3 [6]: bound equally well; also recorded: about as active as 1,25(OH)2D3
